According to publication PMC4685510, “A Cell Biologist’s Field Guide to Aurora Kinase Inhibitors” (Frontiers in Oncology, 2015):

How the values were obtained:
Experiment in all cases: biochemical
Type in all cases: biochemical
[1] = biological target: 363 human kinases (including Aurora A/B/C) (Homo sapiens, UniProt P29376); conditions: TYK1/LTK; for remaining activity at 0.1 µM: 100 nM; for remaining activity at 0.1 µM / remaining activity at 0.5 µM: read-out: % Enzyme Activity (relative to DMSO controls)
Sequence of 363 human kinases (including Aurora A/B/C) (Homo sapiens, UniProt P29376) (P29376 17-864): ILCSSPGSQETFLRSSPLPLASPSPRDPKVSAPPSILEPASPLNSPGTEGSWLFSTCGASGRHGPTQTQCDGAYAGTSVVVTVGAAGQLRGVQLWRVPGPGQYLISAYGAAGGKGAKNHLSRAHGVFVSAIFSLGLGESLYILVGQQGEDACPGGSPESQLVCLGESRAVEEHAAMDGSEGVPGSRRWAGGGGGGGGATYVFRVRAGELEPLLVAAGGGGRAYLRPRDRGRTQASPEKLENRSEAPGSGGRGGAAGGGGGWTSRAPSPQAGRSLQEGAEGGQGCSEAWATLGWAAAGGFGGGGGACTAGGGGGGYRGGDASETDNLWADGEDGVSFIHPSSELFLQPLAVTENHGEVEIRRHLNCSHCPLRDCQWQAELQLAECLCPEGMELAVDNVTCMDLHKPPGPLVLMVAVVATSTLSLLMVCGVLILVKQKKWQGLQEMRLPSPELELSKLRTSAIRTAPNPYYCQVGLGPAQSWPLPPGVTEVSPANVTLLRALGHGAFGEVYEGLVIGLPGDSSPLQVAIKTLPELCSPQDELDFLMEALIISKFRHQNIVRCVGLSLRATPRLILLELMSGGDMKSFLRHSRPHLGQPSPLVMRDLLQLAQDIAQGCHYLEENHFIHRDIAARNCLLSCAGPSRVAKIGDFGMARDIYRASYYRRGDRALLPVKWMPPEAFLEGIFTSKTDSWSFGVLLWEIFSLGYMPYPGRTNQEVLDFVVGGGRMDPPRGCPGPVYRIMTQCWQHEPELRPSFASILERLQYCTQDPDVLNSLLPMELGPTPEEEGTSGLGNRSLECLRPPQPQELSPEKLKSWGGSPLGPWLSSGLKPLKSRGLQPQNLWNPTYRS
From the text: (§1) However, the Aurora A/B selectivity ratios derived from our in vitro and in vivo data can be compared to prioritize inhibitors.

[2] = biological target: 363 human kinases (including Aurora A/B/C) (Homo sapiens, UniProt Q6IQ55); conditions: TTBK2; for remaining activity at 0.1 µM: 100 nM; for remaining activity at 0.1 µM / remaining activity at 0.5 µM: read-out: % Enzyme Activity (relative to DMSO controls)
From the text: as §1

[3] = biological target: T1, 363 human kinases (including Aurora A/B/C) (Homo sapiens, UniProt O43781); conditions: DYRK3, [ATP] 5 µM; for remaining activity at 0.1 µM: 100 nM; for remaining activity at 0.1 µM / remaining activity at 0.5 µM: read-out: % Enzyme Activity (relative to DMSO controls)
T1 sequence (O43781 1-588): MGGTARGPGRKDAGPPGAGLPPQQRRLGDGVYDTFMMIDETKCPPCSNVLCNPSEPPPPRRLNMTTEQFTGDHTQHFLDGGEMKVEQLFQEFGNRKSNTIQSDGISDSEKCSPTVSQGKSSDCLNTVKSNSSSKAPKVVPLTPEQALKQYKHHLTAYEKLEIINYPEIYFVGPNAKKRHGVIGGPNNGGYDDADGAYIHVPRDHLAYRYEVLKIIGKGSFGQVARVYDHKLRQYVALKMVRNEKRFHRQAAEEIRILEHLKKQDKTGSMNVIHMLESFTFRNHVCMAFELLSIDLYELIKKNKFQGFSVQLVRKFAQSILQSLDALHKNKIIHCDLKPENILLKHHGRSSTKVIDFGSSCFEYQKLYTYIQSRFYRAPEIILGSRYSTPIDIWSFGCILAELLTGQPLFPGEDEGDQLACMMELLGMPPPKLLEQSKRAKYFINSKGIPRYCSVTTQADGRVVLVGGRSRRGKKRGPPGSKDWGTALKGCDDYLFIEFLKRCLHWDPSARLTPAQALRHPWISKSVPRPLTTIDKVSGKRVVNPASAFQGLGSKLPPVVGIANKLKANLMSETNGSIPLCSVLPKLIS
From the text: as §1

[4] = biological target: T2, 363 human kinases (including Aurora A/B/C) (Homo sapiens, UniProt Q8IW41); conditions: MAPKAPK5/PRAK; for remaining activity at 0.1 µM: 100 nM; for remaining activity at 0.1 µM / remaining activity at 0.5 µM: read-out: % Enzyme Activity (relative to DMSO controls)
T2 sequence (Q8IW41 1-473): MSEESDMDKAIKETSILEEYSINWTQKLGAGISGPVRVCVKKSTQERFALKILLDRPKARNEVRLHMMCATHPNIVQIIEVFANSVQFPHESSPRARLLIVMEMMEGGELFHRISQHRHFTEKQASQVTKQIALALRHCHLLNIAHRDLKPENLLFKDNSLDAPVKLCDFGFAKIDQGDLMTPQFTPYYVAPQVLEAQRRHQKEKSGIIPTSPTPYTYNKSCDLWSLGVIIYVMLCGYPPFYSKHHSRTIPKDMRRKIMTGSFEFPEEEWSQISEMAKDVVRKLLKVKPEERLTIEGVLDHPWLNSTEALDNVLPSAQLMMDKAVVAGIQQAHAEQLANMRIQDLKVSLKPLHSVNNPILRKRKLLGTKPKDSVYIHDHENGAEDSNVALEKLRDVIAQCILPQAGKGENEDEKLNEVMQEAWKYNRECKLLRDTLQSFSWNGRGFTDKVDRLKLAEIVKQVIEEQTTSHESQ
From the text: as §1

[5] = biological target: 363 human kinases (including Aurora A/B/C) (Homo sapiens, UniProt P07947); conditions: YES/YES1; for remaining activity at 0.1 µM: 100 nM; for remaining activity at 0.1 µM / remaining activity at 0.5 µM: read-out: % Enzyme Activity (relative to DMSO controls)
From the text: as §1

[6] = biological target: 363 human kinases (including Aurora A/B/C) (Homo sapiens, UniProt P54756); conditions: EPHA5, [ATP] 30 µM; for remaining activity at 0.1 µM: 100 nM; for remaining activity at 0.1 µM / remaining activity at 0.5 µM: read-out: % Enzyme Activity (relative to DMSO controls)
Sequence of 363 human kinases (including Aurora A/B/C) (Homo sapiens, UniProt P54756) (P54756 25-1037): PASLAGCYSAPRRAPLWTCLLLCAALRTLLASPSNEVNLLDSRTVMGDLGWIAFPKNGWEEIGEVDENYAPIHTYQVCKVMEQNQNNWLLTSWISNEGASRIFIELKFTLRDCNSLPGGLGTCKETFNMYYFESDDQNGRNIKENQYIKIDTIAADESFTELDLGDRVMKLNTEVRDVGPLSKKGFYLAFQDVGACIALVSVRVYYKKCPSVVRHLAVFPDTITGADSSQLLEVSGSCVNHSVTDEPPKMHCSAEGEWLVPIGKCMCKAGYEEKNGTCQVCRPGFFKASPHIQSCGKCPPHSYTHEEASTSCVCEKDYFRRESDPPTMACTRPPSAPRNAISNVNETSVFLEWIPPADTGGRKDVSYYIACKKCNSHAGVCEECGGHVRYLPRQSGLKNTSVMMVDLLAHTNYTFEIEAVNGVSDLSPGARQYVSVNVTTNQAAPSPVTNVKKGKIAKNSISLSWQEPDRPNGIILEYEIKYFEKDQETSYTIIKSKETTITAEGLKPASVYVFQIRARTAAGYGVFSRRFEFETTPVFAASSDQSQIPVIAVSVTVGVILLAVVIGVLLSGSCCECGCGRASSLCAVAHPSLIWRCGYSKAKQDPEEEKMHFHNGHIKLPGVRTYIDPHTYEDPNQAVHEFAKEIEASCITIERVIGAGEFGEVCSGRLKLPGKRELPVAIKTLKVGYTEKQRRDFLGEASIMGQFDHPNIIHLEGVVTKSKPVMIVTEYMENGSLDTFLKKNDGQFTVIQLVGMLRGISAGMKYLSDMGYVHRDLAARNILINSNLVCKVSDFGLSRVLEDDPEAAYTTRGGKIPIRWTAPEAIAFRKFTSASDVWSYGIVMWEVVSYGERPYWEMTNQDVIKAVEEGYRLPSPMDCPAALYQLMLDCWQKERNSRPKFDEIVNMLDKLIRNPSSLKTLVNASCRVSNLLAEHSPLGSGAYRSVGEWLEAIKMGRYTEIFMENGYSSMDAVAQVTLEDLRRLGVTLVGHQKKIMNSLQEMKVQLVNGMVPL
From the text: as §1

[7] = biological target: T3, 363 human kinases (including Aurora A/B/C) (Homo sapiens, UniProt Q9UBE8); conditions: NLK; for remaining activity at 0.1 µM: 100 nM; for remaining activity at 0.1 µM / remaining activity at 0.5 µM: read-out: % Enzyme Activity (relative to DMSO controls)
T3 sequence (Q9UBE8 1-527): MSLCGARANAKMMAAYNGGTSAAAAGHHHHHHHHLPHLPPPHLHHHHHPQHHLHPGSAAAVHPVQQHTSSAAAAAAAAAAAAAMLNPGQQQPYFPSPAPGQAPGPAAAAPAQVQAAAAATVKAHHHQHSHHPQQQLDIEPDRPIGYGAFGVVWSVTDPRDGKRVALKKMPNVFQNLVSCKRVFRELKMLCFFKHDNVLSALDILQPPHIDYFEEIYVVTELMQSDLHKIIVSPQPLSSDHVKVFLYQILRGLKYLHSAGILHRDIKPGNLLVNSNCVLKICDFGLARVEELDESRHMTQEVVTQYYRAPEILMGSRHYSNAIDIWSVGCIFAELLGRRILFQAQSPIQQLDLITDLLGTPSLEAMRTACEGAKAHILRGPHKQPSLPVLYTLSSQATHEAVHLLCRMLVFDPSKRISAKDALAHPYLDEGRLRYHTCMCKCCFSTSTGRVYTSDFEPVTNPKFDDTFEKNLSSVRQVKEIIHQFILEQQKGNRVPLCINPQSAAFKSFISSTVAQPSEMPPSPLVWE
From the text: as §1

[8] = biological target: 363 human kinases (including Aurora A/B/C) (Homo sapiens, UniProt Q08345); conditions: DDR1, [ATP] 100 µM; for remaining activity at 0.1 µM: 100 nM; for remaining activity at 0.1 µM / remaining activity at 0.5 µM: read-out: % Enzyme Activity (relative to DMSO controls)
Sequence of 363 human kinases (including Aurora A/B/C) (Homo sapiens, UniProt Q08345) (Q08345 19-913): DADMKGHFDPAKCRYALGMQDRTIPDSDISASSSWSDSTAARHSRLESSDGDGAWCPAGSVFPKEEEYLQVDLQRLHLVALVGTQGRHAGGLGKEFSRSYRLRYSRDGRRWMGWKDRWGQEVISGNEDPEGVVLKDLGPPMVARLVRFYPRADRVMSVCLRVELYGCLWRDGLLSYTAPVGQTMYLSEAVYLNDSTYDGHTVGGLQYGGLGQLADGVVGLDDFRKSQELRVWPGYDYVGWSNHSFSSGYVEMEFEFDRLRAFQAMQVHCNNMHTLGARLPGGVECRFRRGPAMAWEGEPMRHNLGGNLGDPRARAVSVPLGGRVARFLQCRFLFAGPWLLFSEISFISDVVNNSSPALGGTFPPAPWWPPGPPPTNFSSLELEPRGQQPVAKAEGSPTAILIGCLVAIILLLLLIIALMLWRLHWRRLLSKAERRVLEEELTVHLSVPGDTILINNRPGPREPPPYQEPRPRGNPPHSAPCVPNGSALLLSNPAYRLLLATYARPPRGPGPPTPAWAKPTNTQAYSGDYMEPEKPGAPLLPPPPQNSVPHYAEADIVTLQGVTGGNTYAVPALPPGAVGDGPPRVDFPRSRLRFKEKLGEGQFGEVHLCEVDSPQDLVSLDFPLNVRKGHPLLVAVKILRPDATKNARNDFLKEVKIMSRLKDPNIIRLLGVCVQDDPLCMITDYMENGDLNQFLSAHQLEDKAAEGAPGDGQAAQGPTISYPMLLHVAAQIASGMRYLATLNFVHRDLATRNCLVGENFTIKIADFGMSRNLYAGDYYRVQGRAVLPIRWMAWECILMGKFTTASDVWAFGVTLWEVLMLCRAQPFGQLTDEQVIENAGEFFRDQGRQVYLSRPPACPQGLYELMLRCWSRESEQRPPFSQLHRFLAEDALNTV
From the text: as §1

[9] = biological target: 363 human kinases (including Aurora A/B/C) (Homo sapiens, UniProt P06241); conditions: FYN; for remaining activity at 0.1 µM: 100 nM; for remaining activity at 0.1 µM / remaining activity at 0.5 µM: read-out: % Enzyme Activity (relative to DMSO controls)
Sequence of 363 human kinases (including Aurora A/B/C) (Homo sapiens, UniProt P06241) (P06241 whole entry): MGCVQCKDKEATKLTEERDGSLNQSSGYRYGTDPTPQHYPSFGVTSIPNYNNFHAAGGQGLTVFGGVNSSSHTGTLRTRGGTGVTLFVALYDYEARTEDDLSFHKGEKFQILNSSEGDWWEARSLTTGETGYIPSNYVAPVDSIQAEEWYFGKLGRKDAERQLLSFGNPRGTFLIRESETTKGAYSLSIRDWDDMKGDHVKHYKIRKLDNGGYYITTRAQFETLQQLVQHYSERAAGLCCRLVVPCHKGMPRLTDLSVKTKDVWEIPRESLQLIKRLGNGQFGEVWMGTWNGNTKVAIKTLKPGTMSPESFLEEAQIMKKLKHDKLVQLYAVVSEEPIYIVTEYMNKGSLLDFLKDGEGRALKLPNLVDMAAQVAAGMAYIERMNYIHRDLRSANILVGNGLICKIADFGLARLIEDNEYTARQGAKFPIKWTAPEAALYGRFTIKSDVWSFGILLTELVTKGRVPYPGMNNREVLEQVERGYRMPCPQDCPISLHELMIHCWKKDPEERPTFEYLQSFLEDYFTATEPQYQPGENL
From the text: as §1

[10] = biological target: 363 human kinases (including Aurora A/B/C) (Homo sapiens, UniProt Q9Y5S2); conditions: MRCKb/CDC42BPB; for remaining activity at 0.1 µM: 100 nM; for remaining activity at 0.1 µM / remaining activity at 0.5 µM: read-out: % Enzyme Activity (relative to DMSO controls)
Sequence of 363 human kinases (including Aurora A/B/C) (Homo sapiens, UniProt Q9Y5S2) (Q9Y5S2 whole entry): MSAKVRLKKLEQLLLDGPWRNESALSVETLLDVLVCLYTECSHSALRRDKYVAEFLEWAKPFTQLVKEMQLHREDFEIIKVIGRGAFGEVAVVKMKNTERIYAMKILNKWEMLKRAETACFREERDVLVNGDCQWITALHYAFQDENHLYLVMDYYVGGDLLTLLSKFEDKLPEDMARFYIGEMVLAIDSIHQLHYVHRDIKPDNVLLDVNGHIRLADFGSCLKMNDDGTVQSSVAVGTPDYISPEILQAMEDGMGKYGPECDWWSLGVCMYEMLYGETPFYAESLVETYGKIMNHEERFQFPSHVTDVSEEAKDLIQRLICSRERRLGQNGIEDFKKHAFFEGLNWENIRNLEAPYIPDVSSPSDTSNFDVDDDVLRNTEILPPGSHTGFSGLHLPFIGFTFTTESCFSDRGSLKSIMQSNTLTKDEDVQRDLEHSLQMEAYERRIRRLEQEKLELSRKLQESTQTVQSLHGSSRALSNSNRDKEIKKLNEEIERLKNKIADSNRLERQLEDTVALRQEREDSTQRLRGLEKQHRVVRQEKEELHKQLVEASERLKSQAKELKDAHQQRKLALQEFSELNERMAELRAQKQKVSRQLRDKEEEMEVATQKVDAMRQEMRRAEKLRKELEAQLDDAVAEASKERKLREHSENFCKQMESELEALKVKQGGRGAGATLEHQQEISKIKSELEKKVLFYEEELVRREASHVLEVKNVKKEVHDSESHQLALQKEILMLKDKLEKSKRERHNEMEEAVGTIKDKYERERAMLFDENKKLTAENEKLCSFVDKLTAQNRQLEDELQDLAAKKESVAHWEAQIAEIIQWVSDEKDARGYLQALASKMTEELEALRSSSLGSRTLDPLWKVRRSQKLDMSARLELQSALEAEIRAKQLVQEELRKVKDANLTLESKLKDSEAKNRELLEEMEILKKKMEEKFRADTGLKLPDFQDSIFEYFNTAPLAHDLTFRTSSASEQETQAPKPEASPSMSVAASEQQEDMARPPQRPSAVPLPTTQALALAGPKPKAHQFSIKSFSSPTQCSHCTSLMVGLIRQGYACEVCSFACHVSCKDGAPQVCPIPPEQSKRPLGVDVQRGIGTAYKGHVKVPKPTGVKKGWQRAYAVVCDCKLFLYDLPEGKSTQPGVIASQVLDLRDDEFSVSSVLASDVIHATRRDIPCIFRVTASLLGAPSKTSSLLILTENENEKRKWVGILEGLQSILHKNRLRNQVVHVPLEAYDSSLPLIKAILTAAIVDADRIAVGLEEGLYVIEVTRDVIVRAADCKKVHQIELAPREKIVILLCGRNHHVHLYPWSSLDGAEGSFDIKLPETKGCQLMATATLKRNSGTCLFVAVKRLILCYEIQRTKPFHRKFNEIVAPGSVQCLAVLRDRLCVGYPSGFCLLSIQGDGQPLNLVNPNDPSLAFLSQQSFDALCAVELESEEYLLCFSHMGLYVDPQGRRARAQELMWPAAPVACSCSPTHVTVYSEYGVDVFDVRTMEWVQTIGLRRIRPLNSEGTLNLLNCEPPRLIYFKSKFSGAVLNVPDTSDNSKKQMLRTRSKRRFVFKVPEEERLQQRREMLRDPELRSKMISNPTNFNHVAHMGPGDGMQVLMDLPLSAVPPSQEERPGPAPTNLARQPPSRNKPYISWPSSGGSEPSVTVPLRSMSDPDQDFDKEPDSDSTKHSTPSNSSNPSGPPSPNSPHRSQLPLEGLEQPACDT
From the text: as §1

## CCn1cc(-c2ccnc3[nH]c(-c4cccc(CN(C)C)c4)cc23)c(-c2ccc(NC(=O)N(C)C)cc2)n1 [GSK1070916]
[1]
  remaining activity at 0.1 µM: 106%
[2]
  remaining activity at 0.1 µM: 119%
[3]
  remaining activity at 0.1 µM: 96%
[4]
  remaining activity at 0.1 µM: 99.4%
[5]
  remaining activity at 0.1 µM: 69.3%
[6]
  remaining activity at 0.1 µM: 101%
[7]
  remaining activity at 0.1 µM: 95.7%
[8]
  remaining activity at 0.1 µM: 26.2%
[9]
  remaining activity at 0.1 µM: 84.3%
[10]
  remaining activity at 0.1 µM: 103%

## O=C(O)[C@]1(Cc2cccc(Nc3nccs3)n2)CC[C@@H](Oc2cccc(Cl)c2F)CC1 [MK-5108]
[1]
  remaining activity at 0.1 µM: 87.6%
[1]; 500 nM
  remaining activity at 0.5 µM: 64.2%
[2]
  remaining activity at 0.1 µM: 99.8%
[2]; 500 nM
  remaining activity at 0.5 µM: 111%
[3]
  remaining activity at 0.1 µM: 87.2%
[3]; 500 nM
  remaining activity at 0.5 µM: 92.2%
[4]
  remaining activity at 0.1 µM: 101%
[4]; 500 nM
  remaining activity at 0.5 µM: 101%
[5]
  remaining activity at 0.1 µM: 31.3%
[5]; 500 nM
  remaining activity at 0.5 µM: 9.25%
[6]
  remaining activity at 0.1 µM: 48.6%
[6]; 500 nM
  remaining activity at 0.5 µM: 24.4%
[7]
  remaining activity at 0.1 µM: 100%
[7]; 500 nM
  remaining activity at 0.5 µM: 94.5%
[8]
  remaining activity at 0.1 µM: 7.97%
[8]; 500 nM
  remaining activity at 0.5 µM: 1.89%
[9]
  remaining activity at 0.1 µM: 43.9%
[9]; 500 nM
  remaining activity at 0.5 µM: 18%
[10]
  remaining activity at 0.1 µM: 90%
[10]; 500 nM
  remaining activity at 0.5 µM: 104%

## O=C(c1cccc(Cl)c1F)N1CCN(Cc2cccc(Nc3nccs3)n2)CC1 [MK-8745]
[1]; 500 nM
  % Enzyme Activity (relative to DMSO controls): 94.24%
  remaining activity at 0.5 µM: 96.4%
[2]; 500 nM
  % Enzyme Activity (relative to DMSO controls): 109.64%
  remaining activity at 0.5 µM: 110%
[3]; 500 nM
  % Enzyme Activity (relative to DMSO controls): 92.33%
  remaining activity at 0.5 µM: 92.3%
[4]; 500 nM
  % Enzyme Activity (relative to DMSO controls): 102.03%
  remaining activity at 0.5 µM: 103%
[5]; 500 nM
  % Enzyme Activity (relative to DMSO controls): 33.63%
  remaining activity at 0.5 µM: 34.6%
[6]; 500 nM
  % Enzyme Activity (relative to DMSO controls): 84.08%
  remaining activity at 0.5 µM: 84.2%
[7]; 500 nM
  % Enzyme Activity (relative to DMSO controls): 97.25%
  remaining activity at 0.5 µM: 98.5%
[8]; 500 nM
  % Enzyme Activity (relative to DMSO controls): 19.23%
  remaining activity at 0.5 µM: 19.7%
[9]; 500 nM
  % Enzyme Activity (relative to DMSO controls): 57.68%
  remaining activity at 0.5 µM: 57.8%
[10]; 500 nM
  % Enzyme Activity (relative to DMSO controls): 102.30%
  remaining activity at 0.5 µM: 102%
